Results taken from patent publication US20240325353A1, “COMPOUND FOR TREATMENT OF COGNITIVE DISORDERS” (Syndesi Therapeutics SA, priority 2021, published 2024).

Legend:
[1] = tested on: functional connectivity of brain networks (DMN, visual network); experiment: resting state BOLD-fMRI functional connectivity; assay type: in vivo, human; settings: post dose versus baseline
Method: This example describes the fMRI analysis performed in the context of the study in Example 3. Simultaneous with the dynamic PET described in example 3 above, MRI data were acquired using a resting state BOLD-fMRI (rs-fMRI) protocol. In the following section, the methodology and results of the analysis of these MRI data are presented.
Resting state BOLD-fMRI data were acquired according to the following protocol: For the analysis of the rs-fMRI scans, all data were converted to the BIDS format for processing with the CONN toolbox (release 19c).
The following preprocessing steps were performed: • Slice timing correction: Temporal misalignment between different slices of the rs-fMRI scans, due to the sequential nature of the fMRI acquisition, is corrected by applying an appropriate timeshift to match the actual acquisition time • Realignment: RS-fMRI data were realigned where all scans were coregistered to the first scan of the first session. This way, potential susceptibility distortion-by-motion interactions were also addressed by estimating the derivatives of the deformation field with respect to head movement, and resampling the functional data to match the deformation field of the reference image. • Outlier detection: Potential outlier scans were identified from the observed global BOLD signal and the amount of subject-motion in the scanner. […]

SV2A = target: T1, SV2A (Rattus norvegicus, UniProt Q02563); experiment: in vivo SV2A receptor occupancy in rats; settings: ip, 0.1 mg/kg i.p., 60 minutes post administration
T1 construct: from tissue; host or cells: brain of living rats

[2] = rodent preclinical cognitive deficit models; assay type: in vivo; settings: range of rodent preclinical cognitive deficit models

T1 sequence (Q02563 whole entry): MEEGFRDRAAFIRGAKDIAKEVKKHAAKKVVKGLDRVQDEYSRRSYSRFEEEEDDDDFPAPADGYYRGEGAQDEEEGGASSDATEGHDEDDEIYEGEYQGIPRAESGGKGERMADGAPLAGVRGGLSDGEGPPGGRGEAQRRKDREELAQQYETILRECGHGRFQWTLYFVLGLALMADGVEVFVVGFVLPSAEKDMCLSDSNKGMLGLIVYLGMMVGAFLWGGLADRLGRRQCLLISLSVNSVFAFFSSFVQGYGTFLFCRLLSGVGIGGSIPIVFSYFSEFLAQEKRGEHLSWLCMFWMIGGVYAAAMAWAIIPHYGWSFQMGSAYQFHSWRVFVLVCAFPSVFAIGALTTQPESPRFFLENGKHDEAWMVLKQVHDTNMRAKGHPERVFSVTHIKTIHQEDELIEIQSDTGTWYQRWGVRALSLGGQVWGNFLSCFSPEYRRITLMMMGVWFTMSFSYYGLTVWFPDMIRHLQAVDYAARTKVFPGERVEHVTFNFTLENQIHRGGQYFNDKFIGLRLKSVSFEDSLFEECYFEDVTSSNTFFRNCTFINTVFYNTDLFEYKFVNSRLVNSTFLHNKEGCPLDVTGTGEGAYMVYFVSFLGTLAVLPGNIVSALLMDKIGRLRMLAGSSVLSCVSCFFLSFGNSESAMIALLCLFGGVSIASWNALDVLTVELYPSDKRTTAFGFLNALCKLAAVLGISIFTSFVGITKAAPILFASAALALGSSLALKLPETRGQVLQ

receptor occupancy at 0.1 mg/kg (SV2A): 20 to 50%
Compound: O=C1C[C@H](c2cc(F)c(F)c(F)c2)CN1Cn1ncnc1Cl [compound of example 1, (4R)-1-[(5-chloro-1H-1,2,4-triazol-1-yl)methyl]-4-(3,4,5-trifluorophenyl)pyrrolidin-2-one]
connectivity in the DMN (seed IC12) ([1]; low doses (all four individuals at 1 and 2 mg)): modulate and enhance connectivity in the DMN | connectivity between IC18 (Visual network) and auditory network ([1]; relatively low occupancy levels): increased | pro-cognitive effects [2]: possesses pro-cognitive effects
